Assay results from patent US20200368260A1, “USE OF BENZOPYRAN COMPOUND IN PREPARATION OF PRODUCT FOR REGULATING LIPID METABOLISM AND COMPOSITION OF THE SAME” (priority 2019, published 2020).

What was measured:
Assay in all cases: Western blotting, protein expression in oleic acid induced HepG2 cells
Type in all cases: cell-based, human
APG7 = system: APG7
Experimental: (§1) The culture, model establishment and drug treatment manners of the cells were operated according to 1.2.3. After completion, cells were collected, cytoplasmic proteins were extracted, and protein electrophoresis was conducted after quantification. Particularly the following methods were used: When the cell confluence reached 70%, 0.5 mM oleic acid was added to treat the cells for 24 h. After completion, the cells were collected and the cytoplasmic protein was extracted, and the protein electrophoresis was conducted after quantification. The electrophoresis method was as follows: After cell culture was completed, the culture plate was taken out, the culture medium in the well was discarded, the pellet was washed twice with PBS, placed onto an ice bath, and added with 100 μL of a protein lysis buffer (RIPA) (PMSF was added into the cell lysis buffer at 1:1000 within few minutes before the use, with a final concentration of 1 mM) per well. After the cells were lysed for about […], the cells were scraped off with a cell scraper, pipetted into a 1.5 mL centrifuge tube (which could be crushed with an ultrasonic cell disruptor for 3-5 times), then centrifuged at 12,000 rpm under 4° C. for 15-20 mM. The supernatant was taken and transferred into a new centrifuge tube for protein quantification or storage at −80° C. Theprotein content was determined by a BCA method, and the operation method was carried out according to the instructions of the kit. After the protein concentration was measured, the protein sample was added with a 5× loading buffer and mixed uniformly at 1:4, then subjected to water bath at 100° C. for […] (entangling with a sealing film to prevent bouncing off), and stored at 4° C. The specific operation method of protein electrophoresis was in accordance with the relevant references. Since each of the molecular weight of the target proteins was within 10-80 KDa except for FASN (the separation gel was prepared according to the following table), the separation gel concentration was selected to be 10%, and the concentration of the FASN protein separation gel was selected to be 6%. A spacer gel was formulated according to the following table, and sample loading was conducted. After completion, electrophoresis should be conducted as soon as possible, where concentration was conducted at 80 v for 30 min, and then electrophoresis was conducted at 120 v until the front edge ran to the lower edge of the separation gel, and the electrophoresis was stopped. 3. Transferring The PVDF membrane was immersed in methanol for 1 min in advance and then soaked with a 1× transfer solution for 10 min. the gel was removed, the excess gel was cut off from top and bottom and left and right, and then the gel was assembled in the order of filter paper-gel-membrane-filter paper from a blackboard to a whiteboard, the bubbles were removed from therebetween, and the assembly was clamped by a clip, and placed in a transfer slot with the black side to black side, and white side to white side. After the completion of the transfer, the PVDF membrane was blocked with a TB ST room-temperature shaker containing 5% skim milk powder for 1 hour. The primary antibody was diluted with TBST containing 5% BSA or 5% skim milk powder (see the antibody instructions for specific dilution multiple). After the end of blocking, the PVDF membrane was incubated with the well-diluted primary antibody overnight at 4° C.

APGSL = details: high dose group
Experimental: as §1

Bcl-1 = details: high dose group
Experimental: (§2) The culture, model establishment and drug treatment manners of the cells were operated according to 1.2.3. After completion, cells were collected, cytoplasmic proteins were extracted, and protein electrophoresis was conducted after quantification. Particularly the following methods were used:
(§3) When the cell confluence reached 70%, 0.5 mM oleic acid was added to treat the cells for 24 h. After completion, the cells were collected and the cytoplasmic protein was extracted, and the protein electrophoresis was conducted after quantification. The electrophoresis method was as follows:
(§4) After cell culture was completed, the culture plate was taken out, the culture medium in the well was discarded, the pellet was washed twice with PBS, placed onto an ice bath, and added with 100 μL of a protein lysis buffer (RIPA) (PMSF was added into the cell lysis buffer at 1:1000 within few minutes before the use, with a final concentration of 1 mM) per well. After the cells were lysed for about […], the cells were scraped off with a cell scraper, pipetted into a 1.5 mL centrifuge tube (which could be crushed with an ultrasonic cell disruptor for 3-5 times), then centrifuged at 12,000 rpm under 4° C. for 15-20 mM. The supernatant was taken and transferred into a new centrifuge tube for protein quantification or storage at −80° C.
(§5) Theprotein content was determined by a BCA method, and the operation method was carried out according to the instructions of the kit. After the protein concentration was measured, the protein sample was added with a 5× loading buffer and mixed uniformly at 1:4, then subjected to water bath at 100° C. for […] (entangling with a sealing film to prevent bouncing off), and stored at 4° C.
(§6) The specific operation method of protein electrophoresis was in accordance with the relevant references. Since each of the molecular weight of the target proteins was within 10-80 KDa except for FASN (the separation gel was prepared according to the following table), the separation gel concentration was selected to be 10%, and the concentration of the FASN protein separation gel was selected to be 6%.
(§7) A spacer gel was formulated according to the following table, and sample loading was conducted. After completion, electrophoresis should be conducted as soon as possible, where concentration was conducted at 80 v for 30 min, and then electrophoresis was conducted at 120 v until the front edge ran to the lower edge of the separation gel, and the electrophoresis was stopped.
3. […]

p62 = details: high dose group
Experimental: as §2, §3, §4, §5, §6, §7
3. […]

| Structure (SMILES) | protein expression of APG7 (APG7; high dose group) | protein expression of APG7 (APG7; low doses) | protein expression of APGSL (APGSL) | protein expression of Bcl-1 (Bcl-1) | protein expression of p62 (p62) |
| --- | --- | --- | --- | --- | --- |
| COc1cc(-c2[o+]c3cc(O)cc(O)c3cc2O[C@@H]2O[C@H](CO)[C@@H](O)[C@H](O)[C@H]2O)cc(OC)c1O [malvidin-3-O-β-D glucoside] | inhibition trend | significant effect | inhibition trend | inhibition trend | inhibition trend |
| COc1cc(-c2[o+]c3cc(O)cc(O)c3cc2O[C@@H]2O[C@H](CO)[C@@H](O)[C@H](O)[C@H]2O)cc(O)c1O [petunidin-3-O-β-D glucoside] | inhibition trend | significant effect | inhibition trend | inhibition trend | inhibition trend |
